Assay results reported in PubChem BioAssay (NCI).
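Growth conditions: 96-well plates. Treatment: test compound, 48 hours, 5 concentrations. Analysis: linear interpolation between bracketing concentrations; unreached endpoints set to highest concentration. GI50: concentration for 50% inhibition of growth. TGI marks complete inhibition of growth.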

Assays:
Experiment in all cases: NCI tumour cell line growth inhibition, 48 h
UACC-62 melanoma = system: UACC-62 melanoma
ACHN renal = system: ACHN renal
A549 NSCLC = system: A549 NSCLC
SNB-19 CNS = system: SNB-19 CNS
T-47D breast = system: T-47D breast
BT-549 breast = system: BT-549 breast
NCI-H226 lung = system: NCI-H226 lung
IGROV1 ovarian = system: IGROV1 ovarian
HT29 colon = system: HT29 colon
NCI-H522 lung = system: NCI-H522 lung
SF-295 CNS = system: SF-295 CNS
SK-MEL-2 melanoma = system: SK-MEL-2 melanoma
SK-MEL-5 melanoma = system: SK-MEL-5 melanoma
SF-268 CNS = system: SF-268 CNS
SW-620 colon = system: SW-620 colon
HCC-2998 colon = system: HCC-2998 colon
SN12C renal = system: SN12C renal
HOP-62 NSCLC = system: HOP-62 NSCLC
OVCAR-4 ovarian = system: OVCAR-4 ovarian
A498 renal = system: A498 renal
NCI-H23 lung = system: NCI-H23 lung
MCF7 breast = system: MCF7 breast
HCT-15 colon = system: HCT-15 colon
NCI/ADR-RES ovarian = system: NCI/ADR-RES ovarian
SNB-75 CNS = system: SNB-75 CNS
MDA-MB-231 breast = system: MDA-MB-231 breast
SK-MEL-28 melanoma = system: SK-MEL-28 melanoma
TK-10 renal = system: TK-10 renal
RXF 393 renal = system: RXF 393 renal
UACC-257 melanoma = system: UACC-257 melanoma
HOP-92 NSCLC = system: HOP-92 NSCLC
COLO 205 colon = system: COLO 205 colon
OVCAR-5 ovarian = system: OVCAR-5 ovarian
OVCAR-8 ovarian = system: OVCAR-8 ovarian
MDA-MB-435 = system: MDA-MB-435
RPMI-8226 leukemia = system: RPMI-8226 leukemia
KM12 colon = system: KM12 colon
OVCAR-3 ovarian = system: OVCAR-3 ovarian
SF-539 CNS = system: SF-539 CNS
786-0 renal = system: 786-0 renal
UO-31 renal = system: UO-31 renal
DU-145 prostate = system: DU-145 prostate
U251 CNS = system: U251 CNS
HS 578T breast = system: HS 578T breast
SK-OV-3 ovarian = system: SK-OV-3 ovarian

CCC/C(=N/N=C(N)N)c1ccc(NC(=O)c2cc3cc(OC)ccc3[nH]2)cc1
GI50 (UACC-62 melanoma): 14.7 µM | TGI (UACC-62 melanoma): 35 µM | GI50 (ACHN renal): 13.1 µM | TGI (ACHN renal): 33.1 µM | GI50 (A549 NSCLC): 13.1 µM | TGI (A549 NSCLC): 38.1 µM | GI50 (SNB-19 CNS): 13.6 µM | TGI (SNB-19 CNS): 35.8 µM | GI50 (T-47D breast): 7.06 µM | TGI (T-47D breast): 32.9 µM | GI50 (BT-549 breast): 13.5 µM | TGI (BT-549 breast): 53.5 µM | GI50 (NCI-H226 lung): 14.7 µM | TGI (NCI-H226 lung): 41.7 µM | GI50 (IGROV1 ovarian): 20.2 µM | TGI (IGROV1 ovarian): 56.9 µM | GI50 (HT29 colon): 4.49 µM | TGI (HT29 colon): 20 µM | GI50 (NCI-H522 lung): 12.7 µM | TGI (NCI-H522 lung): 33.9 µM | GI50 (SF-295 CNS): 10.5 µM | TGI (SF-295 CNS): 25.8 µM | GI50 (SK-MEL-2 melanoma): 18.3 µM | TGI (SK-MEL-2 melanoma): 38.9 µM | GI50 (SK-MEL-5 melanoma): 10.1 µM | TGI (SK-MEL-5 melanoma): 27 µM | GI50 (SF-268 CNS): 5.22 µM | TGI (SF-268 CNS): 29.9 µM | GI50 (SW-620 colon): 3.6 µM | TGI (SW-620 colon): 20.1 µM | GI50 (HCC-2998 colon): 15.1 µM | TGI (HCC-2998 colon): 39 µM | GI50 (SN12C renal): 14.1 µM | TGI (SN12C renal): 33.7 µM | GI50 (HOP-62 NSCLC): 10.1 µM | TGI (HOP-62 NSCLC): 30.2 µM | GI50 (OVCAR-4 ovarian): 3.74 µM | TGI (OVCAR-4 ovarian): 18.7 µM | GI50 (A498 renal): 19.9 µM | TGI (A498 renal): 54.2 µM | GI50 (NCI-H23 lung): 16 µM | TGI (NCI-H23 lung): 36.2 µM | GI50 (MCF7 breast): 2.76 µM | TGI (MCF7 breast): 12.2 µM | GI50 (HCT-15 colon): 14.5 µM | TGI (HCT-15 colon): 36.1 µM | GI50 (NCI/ADR-RES ovarian): 79.7 µM | TGI (NCI/ADR-RES ovarian): > 100 µM | GI50 (SNB-75 CNS): 2.94 µM | TGI (SNB-75 CNS): 18 µM | GI50 (MDA-MB-231 breast): 11.5 µM | TGI (MDA-MB-231 breast): 29.4 µM | GI50 (SK-MEL-28 melanoma): 10.5 µM | TGI (SK-MEL-28 melanoma): 40.2 µM | GI50 (TK-10 renal): 17.9 µM | TGI (TK-10 renal): 39 µM | GI50 (RXF 393 renal): 10.6 µM | TGI (RXF 393 renal): 30.8 µM | GI50 (UACC-257 melanoma): 16.2 µM | TGI (UACC-257 melanoma): 37.5 µM | GI50 (HOP-92 NSCLC): 1.89 µM | TGI (HOP-92 NSCLC): 12.1 µM | GI50 (COLO 205 colon): 9.77 µM | TGI (COLO 205 colon): 30 µM | GI50 (OVCAR-5 ovarian): 14.7 µM | TGI (OVCAR-5 ovarian): 32.3 µM | GI50 (OVCAR-8 ovarian): 12.7 µM | TGI (OVCAR-8 ovarian): 39.1 µM | GI50 (MDA-MB-435): 3.81 µM | TGI (MDA-MB-435): 21.7 µM | GI50 (RPMI-8226 leukemia): 2.13 µM | TGI (RPMI-8226 leukemia): 5.01 µM | GI50 (KM12 colon): 2.28 µM | TGI (KM12 colon): 4.78 µM | GI50 (OVCAR-3 ovarian): 6.36 µM | TGI (OVCAR-3 ovarian): 29.7 µM | GI50 (SF-539 CNS): 8.65 µM | TGI (SF-539 CNS): 30.8 µM | GI50 (786-0 renal): 3.61 µM | TGI (786-0 renal): 29.2 µM | GI50 (UO-31 renal): 17.9 µM | TGI (UO-31 renal): 38 µM | GI50 (DU-145 prostate): 3.57 µM | TGI (DU-145 prostate): 12 µM | GI50 (U251 CNS): 6.35 µM | TGI (U251 CNS): 25.1 µM | GI50 (HS 578T breast): 14 µM | TGI (HS 578T breast): 48.4 µM | GI50 (SK-OV-3 ovarian): 13.9 µM | TGI (SK-OV-3 ovarian): 29.6 µM
